Each compound was assayed against T1, purified human HDAC6 (Homo sapiens, UniProt Q9UBN7) (assay: HDAC6 Enzyme Assay). Details: bin: greater than 500 nM and less than 1 μM (lower bound in nM, upper bound in μM).
T1 construct: purchased BPS Bioscience 5006
T1 sequence (Q9UBN7 1-1215): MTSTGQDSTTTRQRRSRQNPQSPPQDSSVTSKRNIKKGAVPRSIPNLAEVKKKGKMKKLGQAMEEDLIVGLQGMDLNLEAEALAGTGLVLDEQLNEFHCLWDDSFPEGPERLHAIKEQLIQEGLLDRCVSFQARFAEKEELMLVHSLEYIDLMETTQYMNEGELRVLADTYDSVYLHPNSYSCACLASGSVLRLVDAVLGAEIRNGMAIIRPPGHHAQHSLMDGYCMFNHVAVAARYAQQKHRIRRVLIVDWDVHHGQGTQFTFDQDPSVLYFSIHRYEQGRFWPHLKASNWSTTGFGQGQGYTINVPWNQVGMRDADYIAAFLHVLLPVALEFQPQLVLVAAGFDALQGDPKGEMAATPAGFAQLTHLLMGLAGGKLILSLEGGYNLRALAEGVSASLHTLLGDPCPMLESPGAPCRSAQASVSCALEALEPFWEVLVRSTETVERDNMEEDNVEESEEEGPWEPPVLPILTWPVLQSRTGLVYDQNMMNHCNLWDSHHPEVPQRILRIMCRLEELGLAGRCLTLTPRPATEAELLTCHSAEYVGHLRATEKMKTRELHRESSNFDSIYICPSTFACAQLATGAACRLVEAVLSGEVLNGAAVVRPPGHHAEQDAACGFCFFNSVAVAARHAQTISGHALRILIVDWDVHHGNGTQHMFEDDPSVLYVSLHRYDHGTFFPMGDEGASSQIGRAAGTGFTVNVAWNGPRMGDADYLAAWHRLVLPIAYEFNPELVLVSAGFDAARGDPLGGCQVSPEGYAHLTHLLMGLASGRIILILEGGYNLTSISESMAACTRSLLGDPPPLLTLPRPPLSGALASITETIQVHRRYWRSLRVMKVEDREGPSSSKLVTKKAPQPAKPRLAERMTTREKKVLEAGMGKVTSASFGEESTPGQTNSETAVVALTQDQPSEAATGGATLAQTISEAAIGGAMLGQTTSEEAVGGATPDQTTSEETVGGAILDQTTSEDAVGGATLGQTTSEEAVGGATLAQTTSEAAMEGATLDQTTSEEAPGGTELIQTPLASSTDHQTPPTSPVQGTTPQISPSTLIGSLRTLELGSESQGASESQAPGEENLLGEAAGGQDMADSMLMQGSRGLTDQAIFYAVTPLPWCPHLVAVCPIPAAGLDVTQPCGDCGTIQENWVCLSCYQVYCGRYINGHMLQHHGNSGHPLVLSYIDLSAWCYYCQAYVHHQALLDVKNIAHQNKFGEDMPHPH
Type: biochemical
In short: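 Deacetylated product quantified after trypsin digestion as released AMC (340/460 nm), following a 1 h, 30 °C reaction of human HDAC6 with Ac-RGK(Ac)-AMC peptide, quenched by trichostatin A. IC50 derived from DMSO-normalized curves.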

IC50, 500 to 1000 nM:
CC(C)C(NC(=O)c1ccnc2ccccc12)c1ccc(C(=O)NO)cc1 (centres unmarked) [Compound I-246, N-(1-{4-[(hydroxyamino)carbonyl]phenyl}-2-methylpropyl)quinoline-4-carboxamide]

Same assay, conditions: bin: greater than 1 μM

IC50, > 1000 nM:
Cn1c(C(=O)N[C@@H](c2ccc(C(=O)NO)cc2)C(F)(F)F)cc2oc(-c3ccccc3)cc21 [Compound I-231, 4-methyl-2-phenyl-N-((1S)-2,2,2-trifluoro-1-{4-[(hydroxyamino)carbonyl]phenyl}ethyl)-4H-furo[3,2-b]pyrrole-5-carboxamide]
Cc1oc(-c2ccccc2)nc1CC(=O)NC(C)c1cccc(C(=O)NO)c1 (centres unmarked) [Compound I-234, N-hydroxy-3-(1-{[(5-methyl-2-phenyl-1,3-oxazol-4-yl)acetyl]amino}ethyl)benzamide]
Cc1noc(C)c1C(=O)NC(c1ccc(C(=O)NO)cc1)C(C)C (centres unmarked) [Compound I-238, N-(1-{4-[(hydroxyamino)carbonyl]phenyl}-2-methylpropyl)-3,5-dimethylisoxazole-4-carboxamide]
Cc1cc(C(=O)NC(C)c2ccc(C(=O)NO)cc2)nn1C (centres unmarked) [Compound I-241, N-(1-{4-[(hydroxyamino)carbonyl]phenyl}ethyl)-1,5-dimethyl-1H-pyrazole-3-carboxamide]
CC(NC(=O)c1csc2ccccc12)c1ccc(C(=O)NO)cc1 (centres unmarked) [Compound I-244, N-(1-{4-[(hydroxyamino)carbonyl]phenyl}ethyl)-1-benzothiophene-3-carboxamide]
Cn1c(C(=O)NC(c2ccc(C(=O)NO)cc2)C(C)(C)C)cc2oc(-c3ccc(C(F)(F)F)cc3)cc21 (centres unmarked) [Compound I-248, N-(1-{4-[(hydroxyamino)carbonyl]phenyl}-2,2-dimethylpropyl)-4-methyl-2-[4-(trifluoromethyl)phenyl]-4H-furo[3,2-b]pyrrole-5-carboxamide]
CC(C)C(NC(=O)Cc1cc(C(F)(F)F)cc(C(F)(F)F)c1)c1ccc(C(=O)NO)cc1 (centres unmarked) [Compound I-250, 4-[1-({[3,5-bis(trifluoromethyl)phenyl]acetyl}amino)-2-methylpropyl]-N-hydroxybenzamide]

Same assay, conditions: purified human HDAC6, substrate Ac-Arg-Gly-Lys(Ac)-AMC, 1 hour at 30° C.; reported as bins

IC50, < 100 nM:
CCC[C@@H](NC(=O)c1cc2oc(-c3ccccc3)cc2n1C)c1ccc(C(=O)NO)cc1 [Compound I-222, N-((1R)-1-{4-[(hydroxyamino)carbonyl]phenyl}butyl)-4-methyl-2-phenyl-4H-furo[3,2-b]pyrrole-5-carboxamide]
CC(C)[C@@H](NC(=O)C12CC3CC(CC(O)(C3)C1)C2)c1ccc(C(=O)NO)cc1 [Compound I-223, 3-hydroxy-N-((1R)-1-{4-[(hydroxyamino)carbonyl]phenyl}-2-methylpropyl)adamantane-1-carboxamide]
CC(NC(=O)C1=Cc2ccccc2OC1)c1ccc(C(=O)NO)cc1 (centres unmarked) [Compound I-224, N-(1-{4-[(hydroxyamino)carbonyl]phenyl}ethyl)-2H-chromene-3-carboxamide]
COc1cccc(C(=O)NC(C)c2ccc(C(=O)NO)cc2)c1 (centres unmarked) [Compound I-225, N-(1-{4-[(hydroxyamino)carbonyl]phenyl}ethyl)-3-methoxybenzamide]
CC(NC(=O)c1sccc1-n1cccc1)c1ccc(C(=O)NO)cc1 (centres unmarked) [Compound I-228, N-(1-{4-[(hydroxyamino)carbonyl]phenyl}ethyl)-3-(1H-pyrrol-1-yl)thiophene-2-carboxamide]
O=C(NO)c1ccc([C@H](NC(=O)c2cc3ccccc3s2)C2CC2)cc1 [Compound I-229, N-((R)-cyclopropyl{4-[(hydroxyamino)carbonyl]phenyl}methyl)-1-benzothiophene-2-carboxamide]
Cc1nc2cc(C(=O)NC(C)c3ccc(C(=O)NO)cc3)ccc2s1 (centres unmarked) [Compound I-230, N-(1-{4-[(hydroxyamino)carbonyl]phenyl}ethyl)-2-methyl-1,3-benzothiazole-5-carboxamide]
CC(NC(=O)c1ccc2nsnc2c1)c1ccc(C(=O)NO)cc1 (centres unmarked) [Compound I-233, N-(1-{4-[(hydroxyamino)carbonyl]phenyl}ethyl)-2,1,3-benzothiadiazole-5-carboxamide]
CC(NC(=O)Nc1ccc(C#N)cc1)c1ccc(C(=O)NO)cc1 (centres unmarked) [Compound I-236, 4-[1-({[(4-cyanophenyl)amino]carbonyl}amino)ethyl]-N-hydroxybenzamide]
Cc1c(C(=O)N[C@H](C)c2ccc(C(=O)NO)cc2)oc2ccccc12 [Compound I-237, N-((1R)-1-{4-[(hydroxyamino)carbonyl]phenyl}ethyl)-3-methyl-1-benzofuran-2-carboxamide]
CC(C)[C@@H](NC(=O)c1cc2ccccc2n1C)c1ccc(C(=O)NO)cc1 [Compound I-242, N-((1R)-1-{4-[(hydroxyamino)carbonyl]phenyl}-2-methylpropyl)-1-methyl-1H-indole-2-carboxamide]
CCCC(=O)NC(C)c1ccc(C(=O)NO)cc1 (centres unmarked) [Compound I-243, 4-[1-(butyrylamino)ethyl]-N-hydroxybenzamide]
CCC[C@@H](NC(=O)c1cc(Cl)c(Cl)n1C)c1ccc(C(=O)NO)cc1 [Compound I-245, 4,5-dichloro-N-((1R)-1-{4-[(hydroxyamino)carbonyl]phenyl}butyl)-1-methyl-1H-pyrrole-2-carboxamide]
CC(C)C(NC(=O)c1cc2cc(Cl)ccc2[nH]1)c1ccc(C(=O)NO)cc1 (centres unmarked) [Compound I-247, 5-chloro-N-(1-{4-[(hydroxyamino)carbonyl]phenyl}-2-methylpropyl)-1H-indole-2-carboxamide]

IC50, 100 to 500 nM:
Cc1[nH]c2c(C)ccc(C)c2c1CC(=O)NC(c1ccc(C(=O)NO)cc1)C(C)C (centres unmarked) [Compound I-220, N-hydroxy-4-(2-methyl-1-{[(2,4,7-trimethyl-1H-indol-3-yl)acetyl]amino}propyl)benzamide]
CC(NC(=O)c1cc2cc(Cl)ccc2o1)c1cccc(C(=O)NO)c1 (centres unmarked) [Compound I-226, 5-chloro-N-(1-{3-[(hydroxyamino)carbonyl]phenyl}ethyl)-1-benzofuran-2-carboxamide]
CC(NC(=O)c1cc2ccccc2[nH]1)c1cccc(C(=O)NO)c1 (centres unmarked) [Compound I-227, N-(1-{3-[(hydroxyamino)carbonyl]phenyl}ethyl)-1H-indole-2-carboxamide]
Cc1ccccc1S(=O)(=O)NC(C)c1ccc(C(=O)NO)cc1 (centres unmarked) [Compound I-232, N-hydroxy-4-(1-{[(2-methylphenyl)sulfonyl]amino}ethyl)benzamide]
CC(NC(=O)C1CC1)c1ccc(C(=O)NO)cc1 (centres unmarked) [Compound I-239, 4-{1-[(cyclopropylcarbonyl)amino]ethyl}-N-hydroxybenzamide]
C[C@H](NC(=O)c1cc2ccccc2s1)c1cccc(C(=O)NO)c1 [Compound I-240, N-((1S)-1-{3-[(hydroxyamino)carbonyl]phenyl}ethyl)-1-benzothiophene-2-carboxamide]
O=C(NO)c1ccc([C@@H](NC(=O)c2cc3ccccc3s2)C2CC2)cc1 [Compound I-249, N-((S)-cyclopropyl{4-[(hydroxyamino)carbonyl]phenyl}methyl)-1-benzothiophene-2-carboxamide]
